What was measured:
Conditions in all cases: 72 h
Calu-3 [1] = assay: drug sensitivity score (DSS) for viability; higher = more toxic; extreme values may be limits of the assay
Vero E6 [2] = assay: as above
U2OS [3] = assay: as above
Caco-2 [4] = assay: as above
HepG2 [5] = assay: as above
Calu-3 [6] = assay: cell viability relative to DMSO; higher = less toxic
Vero E6 [7] = assay: as above
U2OS [8] = assay: as above
Caco-2 [9] = assay: as above
HepG2 [10] = assay: as above
Calu-3 [11] = assay: relative viability EC50 (midpoint between 100% and the lowest measured viability); higher = less toxic
Vero E6 [12] = assay: as above
U2OS [13] = assay: as above
Caco-2 [14] = assay: as above
HepG2 [15] = assay: as above

SMILES	drug sensitivity score (Calu-3 [1])	drug sensitivity score (Vero E6 [2])	drug sensitivity score (U2OS [3])	drug sensitivity score (Caco-2 [4])	drug sensitivity score (HepG2 [5])	cell viability (Calu-3 [6]; 1 nM) [%]	cell viability (Calu-3 [6]; 10 nM) [%]	cell viability (Calu-3 [6]; 100 nM) [%]	cell viability (Calu-3 [6]; 1000 nM) [%]	cell viability (Calu-3 [6]; 10000 nM) [%]	cell viability (Vero E6 [7]; 1 nM) [%]	cell viability (Vero E6 [7]; 10 nM) [%]	cell viability (Vero E6 [7]; 100 nM) [%]	cell viability (Vero E6 [7]; 1000 nM) [%]	cell viability (Vero E6 [7]; 10000 nM) [%]	cell viability (U2OS [8]; 1 nM) [%]	cell viability (U2OS [8]; 10 nM) [%]	cell viability (U2OS [8]; 100 nM) [%]	cell viability (U2OS [8]; 1000 nM) [%]	cell viability (U2OS [8]; 10000 nM) [%]	cell viability (Caco-2 [9]; 1 nM) [%]	cell viability (Caco-2 [9]; 10 nM) [%]	cell viability (Caco-2 [9]; 100 nM) [%]	cell viability (Caco-2 [9]; 1000 nM) [%]	cell viability (Caco-2 [9]; 10000 nM) [%]	cell viability (HepG2 [10]; 1 nM) [%]	cell viability (HepG2 [10]; 10 nM) [%]	cell viability (HepG2 [10]; 100 nM) [%]	cell viability (HepG2 [10]; 1000 nM) [%]	cell viability (HepG2 [10]; 10000 nM) [%]	relative viability EC50 (Calu-3 [11]) [µM]	relative viability EC50 (Vero E6 [12]) [µM]	relative viability EC50 (U2OS [13]) [µM]	relative viability EC50 (Caco-2 [14]) [µM]	relative viability EC50 (HepG2 [15]) [µM]
CN1CCN(c2ccc(/C=C(\C#N)c3ccccc3Br)cc2)CC1 [DG-172]	0	0	0	0.2	0.3	114	102	104	100	90.6	106	108	104	105	91.3	105	101	106	100	94.8	102	99.5	100	95.5	88.5	101	99.9	104	105	82.1	> 10	> 10	> 10	> 10	> 10
Cc1nc2c(c(=O)[nH]1)CSCC2 [DR-2313]	0	0	0	0	0	105	92.2	95	95.5	91.9	98	100	97.8	94.6	108	102	99.1	99.9	97.1	99.1	92.6	88.9	90.1	95.7	97.4	99.8	101	98.3	108	94.6	> 10	> 10	> 10	> 10	> 10
CC(C)C[C@H](NC(=O)OCc1ccccc1)C(=O)N[C@@H](C[C@@H]1CCNC1=O)C(O)S(=O)(=O)O (stereo not given in full) [GC376 sodium]	0	0	0	0	0	105	92.2	99.9	104	96.1	90.3	104	93.2	102	108	90.4	101	97.3	100	108	97.2	92.6	96.7	92.7	108	101	99.8	97	102	95.4	> 10	> 10	> 10	> 10	> 10
O=C(O)c1ccc(N2N=C(Cc3ccccc3)/C(=C\c3ccc(-c4ccccc4F)o3)C2=O)cc1 [GS-143]	0	0.3	0	0.2	0	102	99.1	101	105	99.8	106	99	99.9	101	82.7	105	106	101	104	98.8	103	104	99.2	93.8	87.5	107	110	95.4	95.8	105	> 10	> 10	> 10	> 10	> 10
Cc1ccc(C(=O)Nc2ccc(CN3CCN(C)CC3)c(C(F)(F)F)c2)cc1C#Cc1cnc2[nH]ncc2c1 [GZD824]	13.9	16.6	15.4	10.1	17.2	96.7	86.8	76.8	45.9	3.7	103	102	86.5	19.1	0.2	99.5	104	77.5	32.5	0.3	102	98.6	86.7	59	2.4	106	98.8	71.2	27.1	0.4	0.497	0.365	0.42	1.17	0.297
CCCCC#Cc1nc(NC)c2ncn([C@@H]3O[C@H](CO)[C@@H](O)[C@H]3O)c2n1 [HEMADO]	0	0	0	0	0	102	108	84.6	102	91.1	110	101	105	105	98.5	102	102	96.1	103	101	103	89	102	104	102	111	103	99.7	103	104	> 10	> 10	> 10	> 10	> 10
O=C(CSc1nc2c(c(=O)n1-c1ccccc1)SCC2)Nc1ccc(-c2ccccc2)cn1 [IWP-L6]	0	0	0	0	0	94.4	96.6	91.7	98.8	87.5	97	97.7	95.3	95.1	96.1	95.4	97.6	93.4	97.1	94.9	89.2	102	96.2	92.6	90.1	100	92.1	105	106	99.3	> 10	> 10	> 10	> 10	> 10
